Experimental data reported in US11203574B2 (BioCryst Pharmaceuticals, Inc., priority 2014, dated 2021).

Key:
[1] = target: human plasma kallikrein (Homo sapiens (Human), UniProt P03952); assay: Plasma kallikrein activity assay (chromogenic substrate S2302); type: biochemical; details: 2 nM kallikrein, 80 μM S2302, 30° C., pH 7.8; Ki by Cheng-Prusoff equation; values given as ranges; read-out: Ki
Protocol: Plasma Kallikrein Activity Assay.
The effect of compounds of the invention on human plasma kallikrein activity was determined using the chromogenic substrates (DiaPharma Group, Inc., West Chester, Ohio, USA). In these experiments, 2 nM kallikrein (Enzyme Research Laboratories, South Bend, Ind., USA) was incubated with 80 μM S2302 (H-D-Pro-Phe-Arg-p-nitroaniline) in the absence or presence of increasing concentrations of compounds of the invention in a final volume of 200 μL Tris-HCl buffer (200 mM NaCl; mM CaCl2; 50 mM Tris-HCl, pH 7.8).
Data were analyzed using SigmaPlot software (Systat Software, Inc., San Jose, Calif., USA) (Four Parameter Logistic Curve).

[2] = test system: hereditary angioedema (HAE); details: bradykinin B2 receptor antagonist; cited from earlier work

Sequence of human plasma kallikrein (P03952 whole entry, looked up): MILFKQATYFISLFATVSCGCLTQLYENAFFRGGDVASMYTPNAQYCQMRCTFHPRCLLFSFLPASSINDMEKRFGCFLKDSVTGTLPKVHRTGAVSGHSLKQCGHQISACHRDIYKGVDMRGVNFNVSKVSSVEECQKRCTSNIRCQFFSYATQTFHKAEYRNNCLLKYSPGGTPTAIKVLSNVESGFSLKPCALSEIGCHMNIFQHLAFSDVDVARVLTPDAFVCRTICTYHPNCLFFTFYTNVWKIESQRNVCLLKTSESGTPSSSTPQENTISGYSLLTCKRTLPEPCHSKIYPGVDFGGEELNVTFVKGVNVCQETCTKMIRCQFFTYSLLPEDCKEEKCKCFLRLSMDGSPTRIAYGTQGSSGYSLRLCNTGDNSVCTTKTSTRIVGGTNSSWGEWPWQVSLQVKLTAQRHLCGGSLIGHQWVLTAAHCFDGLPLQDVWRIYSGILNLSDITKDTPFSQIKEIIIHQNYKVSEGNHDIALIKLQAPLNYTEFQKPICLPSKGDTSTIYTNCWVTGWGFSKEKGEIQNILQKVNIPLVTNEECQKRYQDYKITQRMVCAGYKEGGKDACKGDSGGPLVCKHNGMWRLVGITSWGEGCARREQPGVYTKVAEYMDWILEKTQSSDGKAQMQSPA
Sequence of human plasma kallikrein (P03952 whole entry partner, looked up): as the sequence (P03952 whole entry, looked up) above

**Q.** Which Ki [1] does the source give for `CCC(CO)NC(c1ccccc1)c1cccc(NC(=O)c2cc(C(F)(F)F)nn2-c2cccc(CN)c2)c1` (stereo not drawn) [168b, 1-(3-(Aminomethyl)phenyl)-N-(3-(((1-hydroxybutan-2-yl)amino)(phenyl)methyl)phenyl)-3-(trifluoromethyl)-1H-pyrazole-5-carboxamide] here?
**A.** The Ki was 0.1 to 50 nM.

**Q.** With `NCc1cccc(-n2nc(C(F)(F)F)cc2C(=O)Nc2cccc(C(NC3CCC3)c3ccccc3)c2)c1` (stereo not drawn) [188b, 1-(3-(Aminomethyl)phenyl)-N-(3-((cyclobutylamino)(phenyl)methyl)phenyl)-3-(trifluoromethyl)-1H-pyrazole-5-carboxamide] as the compound, how does the Ki [1] read?
**A.** The Ki was 0.1 to 50 nM.

**Q.** Which Ki [1] does the source give for `NCc1cccc(-n2nc(C(F)(F)F)cc2C(=O)Nc2cccc(C(NCC3CC3)c3cccc4c3OCO4)c2)c1` (stereo not drawn) [192f, 1-(3-(aminomethyl)phenyl)-N-(3-(benzo[d][1,3]dioxol-4-yl(cyclopropylmethylamino)methyl)phenyl)-3-(trifluoromethyl)-1H-pyrazole-5-carboxamide] here?
**A.** Its Ki is 0.1 to 50 nM.

**Q.** For `Cc1ccccc1C(NCC1CC1)c1cccc(NC(=O)c2cc(C(F)(F)F)nn2-c2cccc(CN)c2)c1` (stereo not drawn) [193f, 1-(3-(Aminomethyl)phenyl)-N-(3-(((cyclopropylmethyl)amino)(o-tolyl)methyl)phenyl)-3-(trifluoromethyl)-1H-pyrazole-5-carboxamide], which Ki [1] is on record?
**A.** Its Ki is 0.1 to 50 nM.

**Q.** Which Ki [1] does the source give for `NCc1cccc(-n2nc(C(F)(F)F)cc2C(=O)Nc2cccc(C(NCC3CC3)c3cccc(F)c3)c2)c1` (stereo not drawn) [195f, 1-(3-(aminomethyl)phenyl)-N-(3-(((cyclopropylmethyl)amino)(3-fluorophenyl)methyl)phenyl)-3-(trifluoromethyl)-1H-pyrazole-5-carboxamide] here?
**A.** The Ki was 0.1 to 50 nM.

**Q.** With `NCc1cccc(-n2nc(C(F)(F)F)cc2C(=O)Nc2cccc(C(NCC3CC3)c3ccc(F)cc3F)c2)c1` (stereo not drawn) [196f, 1-(3-(aminomethyl)phenyl)-N-(3-(((cyclopropylmethyl)amino)(2,4-difluorophenyl)methyl)phenyl)-3-(trifluoromethyl)-1H-pyrazole-5-carboxamide] as the compound, how does the Ki [1] read?
**A.** Its Ki is 0.1 to 50 nM.

**Q.** With `NCc1cccc(-n2nc(C(F)(F)F)cc2C(=O)Nc2cccc(C(NCC3CC3)c3cc(F)ccc3F)c2)c1` (stereo not drawn) [197f, 1-(3-(aminomethyl)phenyl)-N-(3-(((cyclopropylmethyl)amino)(2,5-difluorophenyl)methyl)phenyl)-3-(trifluoromethyl)-1H-pyrazole-5-carboxamide] as the compound, how does the Ki [1] read?
**A.** The Ki was 0.1 to 50 nM.

**Q.** With `NCc1cccc(-n2nc(C(F)(F)F)cc2C(=O)Nc2cccc(C(NCC3CC3)c3c(F)cccc3F)c2)c1` (stereo not drawn) [198f, 1-(3-(aminomethyl)phenyl)-N-(3-(((cyclopropylmethyl)amino)(2,6-difluorophenyl)methyl)phenyl)-3-(trifluoromethyl)-1H-pyrazole-5-carboxamide] as the compound, how does the Ki [1] read?
**A.** Its Ki is 0.1 to 50 nM.

**Q.** For `NCc1cccc(-n2nc(C(F)(F)F)cc2C(=O)Nc2cccc(C(NCC3CC3)c3ccc(Cl)cc3)c2)c1` (stereo not drawn) [199f], which Ki [1] is on record?
**A.** The Ki was 0.1 to 50 nM.

**Q.** With `NCc1cccc(-n2nc(C(F)(F)F)cc2C(=O)Nc2cccc(C(NCC3CC3)c3ccc(Cl)cc3Cl)c2)c1` (stereo not drawn) [200f, 1-(3-(aminomethyl)phenyl)-N-(3-((2,4-dichlorophenyl)((cyclopropylmethyl)amino)methyl)phenyl)-3-(trifluoromethyl)-1H-pyrazole-5-carboxamide] as the compound, how does the Ki [1] read?
**A.** The Ki was 0.1 to 50 nM.

**Q.** For `Cc1ccc(C(NCC2CC2)c2cccc(NC(=O)c3cc(C(F)(F)F)nn3-c3cccc(CN)c3)c2)c(C)c1` (stereo not drawn) [201f, 1-(3-(aminomethyl)phenyl)-N-(3-(((cyclopropylmethyl)amino)(2,4-dimethylphenyl)methyl)phenyl)-3-(trifluoromethyl)-1H-pyrazole-5-carboxamide], which Ki [1] is on record?
**A.** The Ki was 0.1 to 50 nM.

**Q.** With `Cc1ccc(C)c(C(NCC2CC2)c2cccc(NC(=O)c3cc(C(F)(F)F)nn3-c3cccc(CN)c3)c2)c1` (stereo not drawn) [202f, 1-(3-(aminomethyl)phenyl)-N-(3-(((cyclopropylmethyl)amino)(2,5-dimethylphenyl)methyl)phenyl)-3-(trifluoromethyl)-1H-pyrazole-5-carboxamide] as the compound, how does the Ki [1] read?
**A.** Its Ki is 0.1 to 50 nM.

**Q.** Which Ki [1] does the source give for `NCc1cccc(-n2nc(C(F)(F)F)cc2C(=O)Nc2cccc(C(NCC3CC3)c3ccc(O)c(Br)c3)c2)c1` (stereo not drawn) [207j, 1-(3-(Aminomethyl)phenyl)-N-(3-((3-bromo-4-hydroxyphenyl)(cyclopropylmethylamino)methyl)phenyl)-3-(trifluoromethyl)-1H-pyrazole-5-carboxamide] here?
**A.** The Ki was 0.1 to 50 nM.

**Q.** Which Ki [1] does the source give for `NCc1cccc(-n2nc(C(F)(F)F)cc2C(=O)Nc2cccc(C(CCC3CC3)n3ccccc3=O)c2)c1` (stereo not drawn) [247c, 1-(3-(aminomethyl)phenyl)-N-(3-(3-cyclopropyl-1-(2-oxopyridin-1(2H)-yl)propyl)phenyl)-3-(trifluoromethyl)-1H-pyrazole-5-carboxamide] here?
**A.** The Ki was 0.1 to 50 nM.

**Q.** Which Ki [1] does the source give for `NCc1cccc(-n2nc(C(F)(F)F)cc2C(=O)Nc2cccc(C(CCC3CC3)N3CCCC3=O)c2)c1` (stereo not drawn) [247e, 1-(3-(aminomethyl)phenyl)-N-(3-(3-cyclopropyl-1-(2-oxopyrrolidin-1-yl)propyl)phenyl)-3-(trifluoromethyl)-1H-pyrazole-5-carboxamide] here?
**A.** The Ki was 0.1 to 50 nM.

**Q.** Which Ki [1] does the source give for `NCc1cccc(-n2nc(C(F)(F)F)cc2C(=O)Nc2cc(C(CCC3CC3)n3ccncc3=O)ccc2F)c1` (stereo not drawn) [249b, 1-(3-(aminomethyl)phenyl)-N-(5-(3-cyclopropyl-1-(2-oxopyrazin-1(2H)-yl)propyl)-2-fluorophenyl)-3-(trifluoromethyl)-1H-pyrazole-5-carboxamide] here?
**A.** Its Ki is 0.1 to 50 nM.

**Q.** For `CN1CCCN(C(CCC2CC2)c2ccc(F)c(NC(=O)c3cc(C(F)(F)F)nn3-c3cccc(CN)c3)c2)CC1` (stereo not drawn) [251e, 1-(3-(aminomethyl)phenyl)-N-(5-(3-cyclopropyl-1-(4-methyl-1,4-diazepan-1-yl)propyl)-2-fluorophenyl)-3-(trifluoromethyl)-1H-pyrazole-5-carboxamide], which Ki [1] is on record?
**A.** Its Ki is 50 to 100 nM.

**Q.** Which Ki [1] does the source give for `NCc1cccc(-n2nc(C(F)(F)F)cc2C(=O)Nc2cc(C(=CCC3CC3)c3ccccc3)ccc2F)c1` [252c, 1-(3-(aminomethyl)phenyl)-N-(5-(3-cyclopropyl-1-phenylprop-1-enyl)-2-fluorophenyl)-3-(trifluoromethyl)-1H-pyrazole-5-carboxamide] here?
**A.** Its Ki is 0.1 to 50 nM.

**Q.** For `Nc1nccc2ccc(-n3nc(C(F)(F)F)cc3C(=O)Nc3cc(C(CCC4CC4)n4ccccc4=O)ccc3F)cc12` (stereo not drawn) [258g, 1-(1-aminoisoquinolin-7-yl)-N-(5-(3-cyclopropyl-1-(2-oxopyridin-1(2H)-yl)propyl)-2-fluorophenyl)-3-(trifluoromethyl)-1H-pyrazole-5-carboxamide], which Ki [1] is on record?
**A.** The Ki was 0.1 to 50 nM.

**Q.** With `Nc1nccc2ccc(-n3nc(C(F)(F)F)cc3C(=O)Nc3cc(C(CCC4CC4)n4ccncc4=O)ccc3F)cc12` (stereo not drawn) [259d, 1-(1-aminoisoquinolin-7-yl)-N-(5-(3-cyclopropyl-1-(2-oxopyrazin-1(2H)-yl)propyl)-2-fluorophenyl)-3-(trifluoromethyl)-1H-pyrazole-5-carboxamide] as the compound, how does the Ki [1] read?
**A.** Its Ki is 0.1 to 50 nM.

**Q.** For `NCc1cccc(-n2nc(C(F)(F)F)cc2C(=O)Nc2cc(C(CCC3CC3)N3C(=O)CCC3=O)ccc2F)c1` (stereo not drawn) [260b, 1-(3-(aminomethyl)phenyl)-N-(5-(3-cyclopropyl-1-(2,5-dioxopyrrolidin-1-yl)propyl)-2-fluorophenyl)-3-(trifluoromethyl)-1H-pyrazole-5-carboxamide], which Ki [1] is on record?
**A.** The Ki was 0.1 to 50 nM.

**Q.** Which Ki [1] does the source give for `NCc1cccc(-n2nc(C(F)(F)F)cc2C(=O)Nc2cc(C(CCC3CC3)n3ccc(=O)[nH]c3=O)ccc2F)c1` (stereo not drawn) [263d, 1-(3-(aminomethyl)phenyl)-N-(5-(3-cyclopropyl-1-(2,4-dioxo-3,4-dihydropyrimidin-1(2H)-yl)propyl)-2-fluorophenyl)-3-(trifluoromethyl)-1H-pyrazole-5-carboxamide] here?
**A.** The Ki was 0.1 to 50 nM.

**Q.** With `Nc1nccc2ccc(-n3nc(C(F)(F)F)cc3C(=O)Nc3cc(C(CCC4CC4)n4ccc(=O)[nH]c4=O)ccc3F)cc12` (stereo not drawn) [269b, 1-(1-aminoisoquinolin-7-yl)-N-(5-(3-cyclopropyl-1-(2,4-dioxo-3,4-dihydropyrimidin-1(2H)-yl)propyl)-2-fluorophenyl)-3-(trifluoromethyl)-1H-pyrazole-5-carboxamide] as the compound, how does the Ki [1] read?
**A.** Its Ki is 0.1 to 50 nM.

**Q.** With `NC(N)=NCCC[C@@H](N)C(=O)N[C@@H](CCCN=C(N)N)C(=O)N1CCC[C@H]1C(=O)N1C[C@H](O)C[C@H]1C(=O)NCC(=O)N[C@@H](Cc1cccs1)C(=O)N[C@@H](CO)C(=O)N1Cc2ccccc2C[C@@H]1C(=O)N1[C@H](C(=O)N[C@@H](CCCN=C(N)N)C(=O)O)C[C@@H]2CCCC[C@@H]21` [Icatibant] as the compound, how does the “treatment of HAE” value [2] read?
**A.** The value was “effective in treating HAE”.
